In PubChem BioAssay (NCI):
Where “and” joins values, the source holds several entries; their conditions need not be identical. Equal entries are not always repeated.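 Interpolation was linear, between the two tested concentrations surrounding the appropriate level; five concentrations were tested over 48 hours in 96-well plates. GI50 is the concentration that inhibits growth by half. The concentration for full growth arrest is given as TGI.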

Legend:
Assay in all cases: growth of human tumour cells (NCI), 48 h
SR leukemia = test system: SR leukemia
IGROV1 ovarian = test system: IGROV1 ovarian
SK-MEL-2 melanoma = test system: SK-MEL-2 melanoma
TK-10 renal = test system: TK-10 renal
RXF 393 renal = test system: RXF 393 renal
HCT-116 colon = test system: HCT-116 colon
HCT-15 colon = test system: HCT-15 colon
SF-268 CNS = test system: SF-268 CNS
M19-MEL melanoma = test system: M19-MEL melanoma
HOP-18 NSCLC = test system: HOP-18 NSCLC

Structure (SMILES) | GI50 (SR leukemia) [µM] | TGI (SR leukemia) [µM] | GI50 (IGROV1 ovarian) [µM] | TGI (IGROV1 ovarian) [µM] | TGI (SK-MEL-2 melanoma) | GI50 (TK-10 renal) | TGI (TK-10 renal) [µM] | GI50 (RXF 393 renal) [µM] | TGI (RXF 393 renal) | GI50 (HCT-116 colon) [µM] | TGI (HCT-116 colon) [µM] | GI50 (HCT-15 colon) [µM] | TGI (HCT-15 colon) | TGI (SF-268 CNS) [µM] | GI50 (SK-MEL-2 melanoma) [µM] | GI50 (SF-268 CNS) [µM] | TGI (M19-MEL melanoma) | GI50 (HOP-18 NSCLC) | TGI (HOP-18 NSCLC) [µM]
CN(C)c1ccc(C(=C2C=CC(=[N+](C)C)C=C2)c2ccc(N(C)C)cc2)cc1 (tested in a mixture with another compound) | 0.0313 | 0.106 | 0.161 | 1.78 | 0.545 µM | 0.0394 µM | 0.321 | 0.108 | 0.871 µM | 0.039 | 1.02 | 0.294 | 1.41 µM | 1.29 | – | – | – | – | –
CCCCCCCCCCCCCCCCCC1=NCCN1CS(=O)(=O)O | 7.85 | > 100 | 3.9 | 14.1 | 67.4 µM | 18.6 µM | 35.4 | 15.4 | 35.6 µM | 10.4 | 30.3 | 4.49 | 23.5 µM | 30.2 | 27.7 | 13.9 | – | – | –
CC(=O)N1CC(Nc2ccc(OC(F)(F)F)cc2)=CC1=O | 0.532 | 52.2 | 7.81 | > 100 | 95.9 µM | 5.85 µM | > 100 | 1.65 | 5.92 µM | 0.472 | 23.3 | 0.45 | > 100 µM | > 100 | 0.52 | 14.4 | – | – | –
CN1CCCNc2c(c(=O)c2=O)NCCCN(C)CCCNc2c(c(=O)c2=O)NCCCN(C)CCCNc2c(c(=O)c2=O)NCCCN(C)CCCNc2c(c(=O)c2=O)NCCCN(C)CCCNc2c(c(=O)c2=O)NCCCN(C)CCCNc2c(c(=O)c2=O)NCCCN(C)CCCNc2c(c(=O)c2=O)NCCC1 | 12.1 | > 50 | 3.13 | 23.8 | 31.6 µM | 1.71 µM | 8.24 | 2.54 | 12.7 µM | 5.81 | 17.4 | 5.19 | 22.5 µM | 18.3 | 3.12 | 1.82 | – | – | –
CC[C@H]1CN2CCc3cc(OC)c(OC)cc3[C@@H]2C[C@@H]1C[C@H]1NCCc2cc(O)c(OC)cc21 | – | – | – | – | 0.0493 µM and 0.0294 µM and 0.0532 µM | 0.0278 µM and < 0.0128 µM | 0.0644 | – | 0.0518 µM and 0.0717 µM | – | – | – | 0.373 µM and 0.557 µM | – | – | – | 0.0492 µM and 0.0178 µM and 0.0876 µM | 0.0284 µM and 0.13 µM | 0.793
Cc1ccc(NC(=O)NC(=O)c2ccc([N+](=O)[O-])cc2[N+](=O)[O-])cc1Oc1ncc(Cl)cn1 | – | 16.9 | – | 29.7 | – | – | > 100 | – | – | – | 4.78 | – | 11.2 µM | 21.8 | – | – | 21.7 µM | – | 25.3
CC/C=C1\N=C(c2ccc(Cl)cc2)OC1=O | – | – | – | > 100 | > 100 µM | – | > 100 | – | > 100 µM | – | – | – | > 100 µM | > 100 | – | – | > 100 µM | – | –
C1CCN(CCC2CCCCN2)CC1 (stereo unspecified) | – | > 100 | – | > 100 | > 100 µM | – | > 100 | – | > 100 µM | – | > 100 | – | > 100 µM | > 100 | – | – | – | – | –
CCn1cc(/C=C/C(C)c2cn(CC)c(=O)[nH]c2=O)c(=O)[nH]c1=O (stereo unspecified) | – | – | – | > 100 | > 100 µM | – | > 100 | – | > 100 µM | – | – | – | > 100 µM | > 100 | – | – | > 100 µM | – | > 100
COc1ccc2oc3c4c2c1CCC4CCC3=O (stereo unspecified) | – | > 100 | – | > 100 | > 100 µM | – | > 100 | – | > 100 µM | – | – | – | – | > 100 | – | – | > 100 µM | – | –
C=C(C)[C@@H]1CC[C@]2(C)[C@H](C(=O)C=C3[C@@H]4C[C@](C)(C(=O)N5CCN(C)CC5)CC[C@]4(C)CC[C@]32C)[C@@]1(C)CCC#N | 1.78 | 9.07 | 6.58 | 14.6 | 14.8 µM | 8.16 µM | 15.5 | 5.32 | 11.4 µM | 3.03 | 9.33 | 4.2 | 10.9 µM | 15.2 | 7.57 | 7.26 | – | – | –
COc1cc(NCCCCN=C(N)NC(N)=NC(C)C)c2ncccc2c1 | 7.01 | 32.6 | 0.439 | 6.32 | 14.9 µM | 10.8 µM | 43.3 | > 47 | > 100 µM | 2.26 | 11.1 | > 100 | > 100 µM | 17.9 | 3.8 | 3.83 | – | – | –
CC1=CC(=O)CCC2(C)C1CC[C@@H]2OC=O (stereo partly specified) | – | > 100 | – | > 100 | > 100 µM | – | > 100 | – | > 100 µM | – | > 100 | – | – | > 100 | – | – | > 100 µM | – | > 100
O=P(O)(O)c1ccccc1 (tested in a mixture with another compound) | – | > 100 | – | > 100 | > 100 µM | – | > 100 | – | > 100 µM | – | > 100 | – | > 100 µM | > 100 | – | – | – | – | –
O=C(CC1(O)C(=O)Nc2ccccc21)c1ccccc1Cl (stereo unspecified) | – | – | – | > 100 | > 100 µM | – | > 100 | – | > 100 µM | – | > 100 | – | > 100 µM | > 100 | – | – | > 100 µM | – | –
CCN(CC)CCCNc1cccc2c(SCc3ccccc3)ccnc12 | 1.79 | 4.47 | 1.9 | 3.75 | 3.56 µM | 1.56 µM | 2.98 | 1.87 | 3.44 µM | 1.6 | 2.95 | 1.72 | 3.82 µM | 3.33 | 1.89 | 1.51 | – | – | –
CCSCC(N)C(=O)O (stereo unspecified) | – | > 100 | – | > 100 | > 100 µM | – | > 100 | – | > 100 µM | – | > 100 | – | > 100 µM | > 100 | – | – | – | – | –
N#CC(C(=O)/C(=N\Nc1nc(=S)[nH]n1N)C(C#N)c1ccc(Cl)cc1)c1ccc(Cl)cc1 (stereo unspecified) | – | – | – | > 100 | > 100 µM | – | > 100 | – | > 100 µM | – | > 100 | – | > 100 µM | > 100 | – | – | > 100 µM | – | > 100
CC(C)(C)NN=C1C(C)(C)C(=NNC(C)(C)C)C1(C)C | – | > 100 | – | > 100 | – | – | > 100 | – | > 100 µM | – | > 100 | – | > 100 µM | > 100 | – | – | > 100 µM | – | –
